Measured values from patent publication US7405041B2, “Methods for regulating transcription by targeting quadruplex DNA” (Arizona Board of Regents on behalf of the University of …, priority 2002, dated 2008).

Assays:
c-MYB RNA = assay: Real-time reverse-transcription PCR gene expression in Colo-205 cells, c-MYB; format: cell-based; conditions: minimally cytotoxic doses
Experimental: (§1) Cells were treated with telomestatin (interacts with the putative tetrad:heptad in HER-2/neu) and TmPyP4 (negative control) at various concentrations and times. Cytotoxicity studies using MTS were performed to determine a non-toxic or minimally toxic dose and duration of treatment. Cells were harvested after treatment for RNA extraction, and “target” versus “non-target” gene expression is measured by real-time reverse-transcription PCR according to established methods.
(§2) Target genes included two known tetrad/heptad (T:H) forming genes, HER-2/neu and c-MYB. c-MYC was analyzed as a positive control, having a known chair quadruplex forming regulatory unit in the nuclease hypersensitive element of the P1 promoter. […]
(§3) A panel of cell lines including SK-BR-3 breast cancer, BT-474 breast cancer, MCF-7 breast cancer, Colo-205 colon cancer, and HeLa cervical cancer were treated with the quadruplex interactive compound TmPyP4 to assess for the cytotoxicity of this agent against a panel of cell lines with various levels of expression of HER-2/neu, c-MYB, and c-MYC. At minimally cytotoxic doses, Colo-205 cells were analyzed for gene expression after treatment with TmPyP4 and using real-time reverse-transcription PCR.

GAPDH RNA = assay: Real-time reverse-transcription PCR gene expression in Colo-205 cells, GAPDH; format: cell-based; conditions: minimally cytotoxic doses
Experimental: as §1, §2, §3

HER-2/neu quadruplex = assay: DNA polymerase arrest assay, HER-2/neu promoter template; format: biochemical; conditions: temperature gradient of 37° C. to 57° C., in the presence of potassium
Text: (§4) A polymerase arrest assay is useful for determining whether transcription is modulated by a candidate molecule and/or a nucleic acid binding protein. Such an assay includes a template nucleic acid, which often comprises a quadruplex forming sequence, and a primer nucleic acid which hybridizes to the template nucleic acid […] of the quadruplex-forming sequence. The primer is extended by a polymerase (e.g., Taq polymerase), which advances from the primer along the template nucleic acid. In this assay, a quadruplex structure can block or arrest the advance of the enzyme, leading to shorter transcription fragments. Also, the arrest assay may be conducted at a variety of temperatures, including 45° C. and 60° C., and at a variety of ion concentrations. An example of the Taq polymerase stop assay is described in Han, et al., Nucl. Acids Res. 27:537-542 (1999), which is a modification of that used by Weitzmann, et al., J. Biol. Chem. 271, 20958-20964 (1996). Briefly, a reaction mixture of template DNA (50 nM), Tris∘HCl (50 mM), MgCl2 (10 mM), DTT (0.5 mM), EDTA (0.1 mM), BSA (60 ng), and 5′-end-labeled quadruplex nucleic acid (˜18 nM) is heated to 90° C. for 5 minutes and allowed to cool to ambient temperature over 30 minutes. Taq Polymerase (1 μl) is added to the reaction mixture, and the reaction is maintained at a constant temperature for 30 minutes. […]

HER-2/neu RNA = assay: Real-time reverse-transcription PCR gene expression in Colo-205 cells, HER-2/neu; format: cell-based; conditions: minimally cytotoxic doses
Experimental: as §1, §2, §3

[1] = tested on: c-MYB nucleic acid (heptad:tetrad quadruplex); assay: DNA polymerase arrest assay, c-MYB nucleic acid; format: biochemical; conditions: temperature gradient of 37° C. to 57° C., in the presence of potassium
Text: as §4

c-MYC RNA = assay: Real-time reverse-transcription PCR gene expression in Colo-205 cells, c-MYC; format: cell-based; conditions: minimally cytotoxic doses
Experimental: as §1, §2, §3

B-actin RNA = assay: Real-time reverse-transcription PCR gene expression in Colo-205 cells, B-actin; format: cell-based; conditions: minimally cytotoxic doses
Experimental: as §1, §2, §3

quadruplex DNA = conditions: stated as reason for use as negative control; cited from earlier work

Compound	c-MYB RNA level (c-MYB RNA)	GAPDH RNA level (GAPDH RNA)	interaction with and stabilization of the HER-2/neu quadruplex (HER-2/neu quadruplex)	HER-2/neu RNA level (HER-2/neu RNA)	interaction with and stabilization of the c-MYB nucleic acid [1]	c-MYC RNA level (c-MYC RNA)	B-actin RNA level (B-actin RNA)	interaction with quadruplex DNA (quadruplex DNA)
C[n+]1ccc(-c2c3nc(c(-c4cc[n+](C)cc4)c4ccc([nH]4)c(-c4cc[n+](C)cc4)c4ccc([nH]4)c(-c4cc[n+](C)cc4)c4nc2C=C4)C=C3)cc1 [TMPyP4]	reduction	not a reduction	no apparent change in the stability of the HER-2/neu quadruplex	not a reduction	interacted with and stabilized the c-MYB nucleic acid	reduction	not a reduction	–
C[n+]1ccccc1-c1c2nc(c(-c3cccc[n+]3C)c3ccc([nH]3)c(-c3cccc[n+]3C)c3ccc([nH]3)c(-c3cccc[n+]3C)c3nc1C=C3)C=C2 [TmPyP2]	–	–	–	–	–	–	–	interacts only weakly with quadruplex DNA
